Results published in article PMC4019984, “Kinase and channel activity of TRPM6 are co-ordinated by a dimerization motif and pocket interaction” (Biochemical Journal, 2014).

Test system: GST-tagged TRPM6-(1700–end)
Test: Phosphorylation site mapping of the dimerization peptide by TRPM6 kinase
Format: biochemical, human
Settings: 500 μM biotinylated peptide, in vitro, trypsin digest, HPLC, Edman solid-phase sequencing
Protocol: A kinase reaction was set up in a volume of 20 μl, with the wild-type biotinylated dimerization peptide and the active (residues 1700–end) kinase fragment in buffer A containing 0.1% 2-mercaptoethanol, 10 mM MgCl2 and 0.1 mM [γ-^32P]ATP (~1000 cpm·pmol^−1). Assays were carried out for 30 min at 30°C with shaking at […] The reaction was terminated by the addition of LDS sample buffer. DTT was added to a final concentration of 10 mM, the samples were boiled, then alkylated with 50 mM iodoacetamide and subsequently resolved by a Bis-Tris 4–12% polyacrylamide gel, which was stained with Colloidal Coomassie Blue. […] Following tryptic digestion, more than 95% of the ^32P radioactivity incorporated in the gel bands was recovered, and the samples were chromatographed on a Vydac 218TP5215 C18 column (Separations Group) equilibrated in 0.1% trifluoroacetic acid in water. The column was developed with a linear acetonitrile gradient at a flow rate of 0.2 ml/min and fractions of 0.1 ml were collected and analysed for ^32P radioactivity by Cerenkov counting. Isolated phosphopeptides were analysed by MS analysis as follows. […] The five most intense ions, above a specified minimum signal threshold, based on a low-resolution (R=20000) preview of the survey scan, were fragmented by collision-induced dissociation and recorded in the linear ion trap (target value of 5000). […]

Question: “biotin-C6-LKSPQEPHHHYSAIERNNLMRLSQ-TIPFTPVQLFAGEEITV [biotinylated dimerization motif peptide, biotin-C6 wild-type dimerization motif peptide; conjugated to streptavidin–Sepharose]” was tested. Which “phosphorylation site in dimerization motif peptide” value did it give?
Answer: Its value is “threonine at position 22”.
